2 substances from patent US7998940B2, “Aptamers to von Willebrand factor and their use as thrombotic disease therapeutics” (Archemix Corp., priority 2004, dated 2011) can be followed below.

pIC50, pKd: −log10 of the molar value. Like-named read-outs stand apart in the source and are kept apart here. [invdT] = inverted (3'-3') thymidine; d = 2'-deoxy (DNA); m = 2'-O-methyl Where only a bound is given, the exact number is not on record here.

Data set [1] has as its system full length human vWF (SEQ ID NO 7). The data set is described as follows: dot blot KD determination and extent of binding, full length human vWF.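 As to all read-outs here: dot blot binding of aptamers to full length human vWF across a protein titration, incubated 30 minutes at room temperature in 1x DPBS with BSA.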 The note with it: for % binding @ 100 nM vWF: extent of aptamer binding at 100 nM full length human vWF; for pKd: full length human vWF, read-out: KD.
Protocol: Based on this initial screen, KDs were determined for 3 of the vWF dependent binding sequences using the dot blot assay. […] A 12 point protein titration was used in the dot blot assay (300 nM, 100 nM, 30 nM, 10 nM, 3 nM, 1 nM, 300 pM, 100 pM, 30 pM, 10 pM, 3 pM, 0 pM) in 1×DPBS plus 0.1 mg/mL BSA at room temperature for 30 minutes.
An 8 point protein titration was used in the dot blot binding assay (100n M, 30 nM, 10 nM, 3 nM, 1 nM, 300 pM, 100 pM, 0 pM)) in 1× Dulbecco's PBS containing 0.1 BSA (final volume of 50 uL) for 30 minutes at room temperature.
Data set [2] has as its system full length human vWF binding to lyophilized platelets. The data set is described as follows: Full length human von Willebrand Factor platelet binding assay (FACS). Format: cell-based. The conditions noted are these: read-out: FACS IC50 vs human full length vWF. In outline:
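Aptamer titrations (0.1–1000 nM) pre-incubated with 5 nM full-length human vWF, then added to lyophilized platelets plus botrocetin for 15 min at 37 °C in PBS/0.5% BSA. Bound vWF detected by anti-vWF then FITC secondary antibody via flow cytometry MFI; % inhibition versus no-aptamer binding fitted for IC50.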

The subject of data set [3] is rabbit vWF domain A1 binding to lyophilized platelets. The data set is described as follows: Rabbit von Willebrand Factor domain A1 platelet binding assay (FACS). Type of data set: cell-based. The conditions noted are these: read-out: FACS IC50 vs rabbit A1 domain. A digest of the protocol:
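Aptamers (0.1–1000 nM) preincubated with 4 nM His-tagged rabbit vWF A1 in PBS/0.5% BSA, then lyophilized human platelets plus botrocetin added, 15 min at 37 °C. Bound A1 detected by anti-His-biotin and PE secondary via flow cytometry (median fluorescence, background-subtracted); IC50 fitted from percent inhibition.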

Assay in data set [4]: not given
The source holds these as a separate data set.

The subject of data set [5] is botrocetin induced platelet aggregation. The data set is described as follows: Inhibition of botrocetin induced platelet aggregation (BIPA) in human PRP. Type of data set: cell-based. The conditions noted are these: human platelet rich plasma. A digest of the protocol:
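Fresh human platelet-rich plasma, prewarmed at 37 degrees C, was preincubated one minute with aptamer (zero, 1 nM to 1000 nM) before botrocetin at a per-donor titrated aggregating concentration. Aggregation was followed as light transmittance; the value is the concentration blocking aggregation by 90% or greater after 6 minutes.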

rabbit vWF domain A1 binding to lyophilized platelets, sequence (as listed by the source): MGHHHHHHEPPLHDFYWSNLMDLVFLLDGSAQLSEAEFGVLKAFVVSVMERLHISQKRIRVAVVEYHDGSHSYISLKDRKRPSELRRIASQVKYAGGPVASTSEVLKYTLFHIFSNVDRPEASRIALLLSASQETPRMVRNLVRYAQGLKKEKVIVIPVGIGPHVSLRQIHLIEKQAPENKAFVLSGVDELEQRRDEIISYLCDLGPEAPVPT

A word on the pKd: it is the negative decadic logarithm of the Kd, by convention in mol/L. As for “mCmGmGmCdCmG-s-TmGdCdGdGTmGmCdCmUdCdCmGmUmCmAmCPEGmGmUdGdCdAmGmUmGmCmCmG-3T (CGGCCGTGCGGTGCCUCCGUCACGUGCAGUGCCGT; chemistry not fully specified) [ARC1533]”, the “T½ Human plasma” value stood at 93 h. Besides, in data set [1] (Phase 4 and 5 modification), the “% binding @ 100 nM vWF” value worked out at 31.7% and the pKd was 8.40.
The pIC50 is the IC50 on a negative log10 scale, so that one unit is a factor of ten. The term IC90 denotes the concentration needed for an effect of 90%. A higher IC90 goes with weaker potency. As for “mGmCmGmUdGdCdAmGmUmGmCmCmUmUmCmGmGmCdCmGTmGdCdGdGTmGmCdCmUdCdCmGmUmCmAmCmGmC-3T (GCGUGCAGUGCCUUCGGCCGTGCGGTGCCUCCGUCACGC; sugars from the 5' end mmmmdddmmmmmmmmmmmdmdmddddmmdmddmmmmmmm, [invdT] at 3' end, backbone and methylation of C not given here) [ARC1346]”, the pIC50 in data set [2] is 7.30; in data set [3], 6.74. Besides, the “T½ Rat plasma” value in data set [4] worked out at 19 h. The IC90 in data set [5] is more than 1000 nM. For the same substance, in data set [1] (Phase 2 modification), the “% binding @ 100 nM vWF” value turned out to be 51%. For the same substance, the negative logarithm of the Kd (pKd) in data set [1] (Phase 2 modification) is 7.96. Moreover, the “binding to human vWF” value in data set [1] (in words, dot blot) is reported as “the most potent”.
